Measurements published in ChEMBL document CHEMBL1800066 (J Med Chem, 2011).
Calls of active or inactive are those of the source. No cut-off for these calls is given here.

Assays:
[1] = biological target: Macrophage-stimulating protein receptor (Homo sapiens, UniProt Q04912); experiment: Inhibition of human Ron
[2] = Tmax in rat at 5 mg/kg, po; type: ADME, organism-based; design: dose 5 mg/kg, route oral; conditions: in vivo
[3] = biological target: T1, Hepatocyte growth factor receptor (Homo sapiens, UniProt P08581); experiment: Inhibition of recombinant human c-MET phosphorylation at C-terminal Y1349
[4] = Plasma clearance in dog at 1 mg/kg, iv; type: ADME, organism-based, Canis lupus familiaris; design: dose 1 mg/kg, route intravenous
[5] = AUC (0 to infinity) in mouse at 2 mg/kg, po; type: ADME, organism-based; design: time infinity, dose 2 mg/kg, route oral; conditions: plasma
[6] = biological target: Voltage-gated inwardly rectifying potassium channel KCNH2 (Homo sapiens, UniProt Q12809); experiment: Inhibition of Kv11.1 channel
[7] = biological target: High affinity nerve growth factor receptor (Homo sapiens, UniProt P04629); experiment: Inhibition of human TrkA
[8] = Volume of distribution at steady state in mouse at 1 mg/kg, iv; type: ADME, organism-based; design: dose 1 mg/kg, route intravenous; conditions: in vivo, read-out: Vdss
[9] = Half life in rat at 2 mg/kg, iv and 5 mg/kg, po; type: ADME, organism-based; conditions: in vivo
Mus musculus = experiment: Toxicity in human GTL16 cells xenografted CD1 nu/nu mouse assessed as change in median body weight at 200 mg/kg, po QD; type: organism-based; design: dose 200 mg/kg, route oral; conditions: in vivo
[10] = biological target: Hepatocyte growth factor receptor (Homo sapiens, UniProt P08581, Y1230C)
[11] = Lipophilicity, log P of the compound; type: physicochemical; conditions: octanol/water
[12] = biological target: Hepatocyte growth factor receptor (Homo sapiens, UniProt P08581, Y1230H)
[13] = AUC (0 to infinity) in mouse at 1 mg/kg, iv; type: ADME, organism-based; design: time infinity, dose 1 mg/kg, route intravenous; conditions: plasma
[14] = biological target: Tyrosine-protein kinase Mer (Homo sapiens, UniProt Q12866); experiment: Inhibition of human Mer
[15] = biological target: T1, Hepatocyte growth factor receptor; experiment: Inhibition of recombinant human c-MET phosphorylation at C-terminal Y1365
Cytochrome P450 2C9 = Cytochrome P450 2C9 (Homo sapiens, UniProt P11712); experiment: Inhibition of CYP2C9; type: ADME
[16] = Plasma clearance in monkey at 0.25 mg/kg, iv; type: ADME, organism-based, Macaca mulatta; design: dose 0.25 mg/kg, route intravenous; conditions: rhesus monkey
[17] = biological target: Fibroblast growth factor receptor 2 (Homo sapiens, UniProt P21802); experiment: Inhibition of human FGFR2
[18] = biological target: T1, Hepatocyte growth factor receptor; experiment: Inhibition of c-MET overexpressed in human GTL-16 cells assessed as phosphorylation at C-terminal Y1365 after 2 hrs by Western blot analysis; type: cell-based
[19] = Oral bioavailability in mouse at 2 mg/kg; type: ADME, organism-based; conditions: in vivo
GTL 16 = experiment: Antitumor activity against human GTL16 cells xenografted in CD1 nu/nu mouse assessed as suppression of tumor growth at 200 mg/kg, po QD; type: functional, organism-based; design: dose 200 mg/kg
[20] = biological target: T1, Hepatocyte growth factor receptor; experiment: Inhibition of c-MET overexpressed in human GTL-16 cells assessed as phosphorylation at C-terminal Y1349 after 2 hrs by Western blot analysis; type: cell-based
[21] = Tmax in dog at 2 mg/kg, po; type: ADME, organism-based, Canis lupus familiaris; design: dose 2 mg/kg, route oral; conditions: in vivo
[22] = Half life in dog at 1 mg/kg, iv; type: ADME, organism-based, Canis lupus familiaris; design: dose 1 mg/kg, route intravenous; conditions: in vivo

With `CN(C[C@@H]1COCCO1)S(=O)(=O)Nc1ccc2ccc3ncc(-c4cnn(C)c4)cc3c(=O)c2c1` [MK-2461] the IC50 [1] was 7 nM, the Tmax [2] was 42 min and the IC50 [3] was 100 nM. It also gave a clearance [4] of 4.3 mL/min/kg, an AUC(0-inf) [5] of 0.6 µM·h and an IC50 [6] greater than 30 µM. It also gave an IC50 [7] of 46 nM, a Vd [8] of 3.2 L/kg and a half-life [9] of 48 min. For the same compound, the Activity (Mus musculus) was “Non-toxic”, the IC50 [10] was 1.5 nM and the logP [11] was 2.7. It also gave an IC50 [12] of 1 nM, an AUC(0-inf) [13] of 0.4 µM·h and an IC50 [14] of 24 nM. For the same compound, the IC50 [15] was 26 nM, the IC50 (Cytochrome P450 2C9) was 1200 nM and the clearance [16] was 8.4 mL/min/kg. The IC50 [17] was 39 nM, the IC50 [18] was 50 nM and the bioavailability [19] was 75%. The Activity (GTL 16) was “Active”, the IC50 [20] was 56 nM and the Tmax [21] was 1.4 h. For the same compound, the half-life [22] was 174 min.
